# Assay results: patent US4352792A, “3-Alkoxyflavone antiviral agents” (priority 1979, dated 1982)
# Read-outs that look alike come from different tables or passages of the source.
# Legend:
# rhinovirus HGP = experiment: Inhibition of viral cytopathogenic effect in HeLa cells (rhinovirus HGP); format: cell-based; conditions: Enterovirus, HeLa, 48 h, read-out: IC50 rhinovirus HGP
# Coxsackie virus B1 [1] = experiment: Inhibition of viral cytopathogenic effect in HeLa cells (Coxsackie virus B1); format: cell-based
# rhinovirus type 1A = experiment: in vitro antiviral spectrum; format: cell-based; conditions: Enterovirus; rhinovirus type 1A; read-out: Minimum inhibitory concentration
# rhinovirus type 2 = experiment: in vitro antiviral spectrum; format: cell-based; conditions: Enterovirus; rhinovirus type 2; read-out: Minimum inhibitory concentration
# rhinovirus type 3 = experiment: in vitro antiviral spectrum; format: cell-based; conditions: Enterovirus; rhinovirus type 3; read-out: Minimum inhibitory concentration
# rhinovirus type 4 = experiment: in vitro antiviral spectrum; format: cell-based; conditions: Enterovirus; rhinovirus type 4; read-out: Minimum inhibitory concentration
# rhinovirus type 9 = experiment: in vitro antiviral spectrum; format: cell-based; conditions: Enterovirus; rhinovirus type 9; read-out: Minimum inhibitory concentration
# rhinovirus type 13 = experiment: in vitro antiviral spectrum; format: cell-based; conditions: Enterovirus; rhinovirus type 13; read-out: Minimum inhibitory concentration
# rhinovirus type 14 = experiment: in vitro antiviral spectrum; format: cell-based; conditions: Enterovirus; rhinovirus type 14; read-out: Minimum inhibitory concentration
# rhinovirus type 16 = experiment: in vitro antiviral spectrum; format: cell-based; conditions: Enterovirus; rhinovirus type 16; read-out: Minimum inhibitory concentration
# rhinovirus type 17 = experiment: in vitro antiviral spectrum; format: cell-based; conditions: Enterovirus; rhinovirus type 17; read-out: Minimum inhibitory concentration
# rhinovirus type 21 = experiment: in vitro antiviral spectrum; format: cell-based; conditions: Enterovirus; rhinovirus type 21; read-out: Minimum inhibitory concentration
# rhinovirus type 26 = experiment: in vitro antiviral spectrum; format: cell-based; conditions: Enterovirus; rhinovirus type 26; read-out: Minimum inhibitory concentration
# rhinovirus type 30 = experiment: in vitro antiviral spectrum; format: cell-based; conditions: Enterovirus; rhinovirus type 30; read-out: Minimum inhibitory concentration
# rhinovirus type 32 = experiment: in vitro antiviral spectrum; format: cell-based; conditions: Enterovirus; rhinovirus type 32; read-out: Minimum inhibitory concentration
# rhinovirus type 34 = experiment: in vitro antiviral spectrum; format: cell-based; conditions: Enterovirus; rhinovirus type 34; read-out: Minimum inhibitory concentration
# rhinovirus type 36 = experiment: in vitro antiviral spectrum; format: cell-based; conditions: Enterovirus; rhinovirus type 36; read-out: Minimum inhibitory concentration
# rhinovirus type 39 = experiment: in vitro antiviral spectrum; format: cell-based; conditions: Enterovirus; rhinovirus type 39; read-out: Minimum inhibitory concentration
# rhinovirus type 44 = experiment: in vitro antiviral spectrum; format: cell-based; conditions: Enterovirus; rhinovirus type 44; read-out: Minimum inhibitory concentration
# rhinovirus type 47 = experiment: in vitro antiviral spectrum; format: cell-based; conditions: Enterovirus; rhinovirus type 47; read-out: Minimum inhibitory concentration
# rhinovirus type 50 = experiment: in vitro antiviral spectrum; format: cell-based; conditions: Enterovirus; rhinovirus type 50; read-out: Minimum inhibitory concentration
# rhinovirus type 53 = experiment: in vitro antiviral spectrum; format: cell-based; conditions: Enterovirus; rhinovirus type 53; read-out: Minimum inhibitory concentration
# rhinovirus type 55 = experiment: in vitro antiviral spectrum; format: cell-based; conditions: Enterovirus; rhinovirus type 55; read-out: Minimum inhibitory concentration
# Coxsackie virus A21 = experiment: in vitro antiviral spectrum; format: cell-based; conditions: read-out: Minimum inhibitory concentration
# ECHO virus type 9 = experiment: in vitro antiviral spectrum; format: cell-based; conditions: read-out: Minimum inhibitory concentration
# ECHO virus type 11 = experiment: in vitro antiviral spectrum; format: cell-based; conditions: read-out: Minimum inhibitory concentration
# ECHO virus type 12 = experiment: in vitro antiviral spectrum; format: cell-based; conditions: read-out: Minimum inhibitory concentration
# ECHO virus type 19 = experiment: in vitro antiviral spectrum; format: cell-based; conditions: read-out: Minimum inhibitory concentration
# poliovirus type 1 = experiment: microbe, parasite or virus in culture; format: cell-based; conditions: Enterovirus C, read-out: Minimum inhibitory concentration
# [2] = system: rhinoviruses HGP, 1A and Coxsackie virus B1; experiment: Inhibition of viral replication in HeLa cells; format: cell-based; conditions: concentrations of 0.5 to 2 μg/ml, HeLa cells (FIG. 1)
# HeLa cell = HeLa cell growth; format: cell-based; conditions: 0.5 to 2 μg/ml
# acute toxicity in mice = conditions: mouse, in vivo, day 21
# Coxsackie virus B1 [3] = experiment: Anti-Coxsackie virus activity, lethal infection in mice; conditions: Mus musculus, 504 h, read-out: Survival
smiles,measurement,setting,value
"COc1cc(O)c2c(=O)c(OC)c(-c3ccc(O)c(OC)c3)oc2c1 [4',5-dihydroxy-3,3',7-trimethoxyflavone]",IC50,rhinovirus HGP,0.1 µg/mL
same,MIC,"Coxsackie virus B1 [1]; Coxsackie virus B1, read-out: Minimum inhibitory concentration",0.1 to 0.2 µg/mL
same,IC50,"Coxsackie virus B1 [1]; HeLa, 24 h, read-out: IC50 Coxsackie virus B1",0.1 to 0.2 µg/mL
same,MIC,rhinovirus type 1A,0.03 µg/mL
same,MIC,rhinovirus type 2,0.1 µg/mL
same,MIC,rhinovirus type 3,0.1 µg/mL
same,MIC,rhinovirus type 4,1 µg/mL
same,MIC,rhinovirus type 9,0.1 µg/mL
same,MIC,rhinovirus type 13,0.3 to 1 µg/mL
same,MIC,rhinovirus type 14,0.1 µg/mL
same,MIC,rhinovirus type 16,0.3 µg/mL
same,MIC,rhinovirus type 17,0.3 µg/mL
same,MIC,rhinovirus type 21,0.3 µg/mL
same,MIC,rhinovirus type 26,0.3 µg/mL
same,MIC,rhinovirus type 30,0.03 to 0.1 µg/mL
same,MIC,rhinovirus type 32,0.1 µg/mL
same,MIC,rhinovirus type 34,0.3 µg/mL
same,MIC,rhinovirus type 36,0.3 µg/mL
same,MIC,rhinovirus type 39,0.1 µg/mL
same,MIC,rhinovirus type 44,0.05 to 0.5 µg/mL
same,MIC,rhinovirus type 47,0.3 µg/mL
same,MIC,rhinovirus type 50,0.3 µg/mL
same,MIC,rhinovirus type 53,0.1 µg/mL
same,MIC,rhinovirus type 55,0.3 µg/mL
same,MIC,Coxsackie virus A21,0.1 to 0.3 µg/mL
same,MIC,ECHO virus type 9,0.1 to 0.3 µg/mL
same,MIC,ECHO virus type 11,0.1 to 0.3 µg/mL
same,MIC,ECHO virus type 12,0.1 to 0.3 µg/mL
same,MIC,ECHO virus type 19,0.1 to 0.3 µg/mL
same,MIC,poliovirus type 1,0.1 to 0.3 µg/mL
same,reduction of viral replication,[2],reduces the viral replication quite considerably
same,effect on HeLa cell growth,HeLa cell,HeLa cell growth is not affected
same,LD50 at 504 h,"acute toxicity in mice; ip, single dose i.p., dissolved in dimethyl sulfoxide, read-out: LD50 i.p.",> 1000 mg/kg
same,LD50 at 504 h,"acute toxicity in mice; po, single dose p.o., suspended in 0.5% carboxymethylcellulose, read-out: LD50 p.o.",> 5000 mg/kg
same,responders at 10 mg/kg,Coxsackie virus B1 [3]; ip,10%
same,responders at 20 mg/kg,Coxsackie virus B1 [3]; ip,20%
same,responders at 20 mg/kg,Coxsackie virus B1 [3]; po,10%
same,responders at 40 mg/kg,Coxsackie virus B1 [3]; po,30%
